The experiment relates to P388 leukemia ip, CD2F1 mice, survival T/C. The experiment in a line: NCI In Vivo Anticancer Drug Screen. Data for tumor model P388 Leukemia (intraperitoneal) in CD2F1 (CDF1) mice. The note with it: endpoint: median survival time, higher = longer survival. In a few lines: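 Mice carrying the transplanted tumor received test compound or vehicle. Survival was recorded in each group, and the value is the treated-group measurement divided by that of the vehicle-treated control group.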

Where [1] appears, read: dose: 12.5 mg/kg/injection, schedule: Q01DX005 (ip), vehicle: Klucel (hydroxypropylcellulose) (HPC).
Where [2] appears, read: dose: 50.0 mg/kg/injection, schedule: Q01DX005 (ip), vehicle: Klucel (hydroxypropylcellulose) (HPC).
[3] abbreviates: dose: 100.0 mg/kg/injection, schedule: Q01DX005 (ip), vehicle: Klucel (hydroxypropylcellulose) (HPC).
Setting [4] is: dose: 200.0 mg/kg/injection, schedule: Q01DX005 (ip), vehicle: Klucel (hydroxypropylcellulose) (HPC).
Where [5] appears, read: dose: 60.0 mg/kg/injection, schedule: Q01DX005 (ip), vehicle: saline with Tween-80.
[6] abbreviates: dose: 50.0 mg/kg/injection, schedule: Q01DX009 (ip), vehicle: saline.
Where [7] appears, read: dose: 50.0 mg/kg/injection, schedule: Q01DX009 (ip), vehicle: Klucel (hydroxypropylcellulose) (HPC).
The mark [8] stands for this setting: dose: 100.0 mg/kg/injection, schedule: Q01DX009 (ip), vehicle: Klucel (hydroxypropylcellulose) (HPC).
Where [9] appears, read: dose: 50.0 mg/kg/injection, schedule: Q01DX005 (ip), vehicle: saline with Tween-80.
[10] abbreviates: dose: 100.0 mg/kg/injection, schedule: Q01DX005 (ip), vehicle: saline with Tween-80.
Setting [11] is: dose: 200.0 mg/kg/injection, schedule: Q01DX005 (ip), vehicle: saline with Tween-80.

“And” between values parts separate entries of the source, which are not always exact repeats. Identical values can stand only once. Toxic doses and inconclusive results are not listed.

In the case of `C=C1C(=O)OC2/C=C(\CO)C3OC3C3OC3(C)CC(OC(=O)/C(=C/C)CO)C12` (stereo unspecified), the T/C (dose: 3.12 mg/kg/injection, schedule: Q01DX005 (ip), vehicle: Klucel (hydroxypropylcellulose) (HPC)) was 99 % of control and 106 % of control; the T/C (dose: 6.25 mg/kg/injection, schedule: Q01DX005 (ip), vehicle: Klucel (hydroxypropylcellulose) (HPC)) was 100 % of control and 107 % of control and 110 % of control; the T/C under setting [1] was 105 % of control and 106 % of control; the T/C under setting [2] was 100 % of control and 109 % of control.
Regarding `CCCCC(NC(=O)OCc1ccccc1)C(=O)NC(Cc1c[nH]c2ccccc12)C(=O)O` (stereo unspecified), the T/C reads like this: under setting [2], 95 % of control; under setting [3], 101 % of control; under setting [4], 92 % of control.
In the case of `N=C(N)Cl`, the T/C by setting is: (dose: 15.0 mg/kg/injection, schedule: Q01DX005 (ip), vehicle: saline) 100 % of control; (dose: 30.0 mg/kg/injection, schedule: Q01DX005 (ip), vehicle: saline) 94 % of control; (dose: 60.0 mg/kg/injection, schedule: Q01DX005 (ip), vehicle: saline) 88 % of control.
With `CCO/C=C1/N=C(c2ccc(Cl)cc2)OC1=O`, the T/C under setting [5] was 121 % of control.
Consider `O=C(O)CSCCCCCCSCC(=O)O`, for which the T/C runs as follows: under setting [6], 103 % of control; (dose: 100.0 mg/kg/injection, schedule: Q01DX009 (ip), vehicle: saline) 103 % of control; (dose: 200.0 mg/kg/injection, schedule: Q01DX009 (ip), vehicle: saline) 103 % of control.
As to `CCc1cccc2c(NCCCCCCCCCCNc3c4ccccc4nc4c(CC)cccc34)c3ccccc3nc12`, the T/C was 104 % of control (dose: 0.62 mg/kg/injection, schedule: Q## X009 (ip), vehicle: lactic acid); 107 % of control (dose: 1.25 mg/kg/injection, schedule: Q## X009 (ip), vehicle: lactic acid); 113 % of control (dose: 2.5 mg/kg/injection, schedule: Q## X009 (ip), vehicle: lactic acid).
With `COC(=O)C1(CC(=O)c2ccc(Cl)cc2Cl)NC(=S)NC(=O)C1C#N` (stereo unspecified), the T/C was 91 % of control under setting [5] and 92 % of control (dose: 120.0 mg/kg/injection, schedule: Q01DX005 (ip), vehicle: saline with Tween-80).
On to `CCSSc1ccccc1C(=O)O`, for which the T/C is 102 % of control under setting [2], 109 % of control under setting [3] and 112 % of control under setting [4].
Take `COc1ccc(C2C(C#N)C(=O)NC(=O)C2C#N)cc1OC` (stereo unspecified): the T/C is 98 % of control under setting [7]; 107 % of control under setting [8]; 111 % of control (dose: 200.0 mg/kg/injection, schedule: Q01DX009 (ip), vehicle: Klucel (hydroxypropylcellulose) (HPC)).
For the compound `[N-]=[N+]=NC12CC3CC4C5CC(CC41)CC2[C@H]5C3`, the T/C runs as follows: under setting [9], 97 % of control; under setting [10], 99 % of control; under setting [11], 100 % of control.
On to `c1ccc(CCNC2CCc3ccccc3C2)cc1` (stereo unspecified), for which the T/C under setting [9] was 93 % of control.
`O=C1CSC(=S)N1c1ccc(Cl)cc1`: the T/C was 96 % of control (dose: 25.0 mg/kg/injection, schedule: Q01DX009 (ip), vehicle: Klucel (hydroxypropylcellulose) (HPC)); 96 % of control under setting [7]; 113 % of control under setting [8].
In the case of `CCOC(=O)C1=C(C)NC(C)=C(C(=O)OCC)C1c1ccc(Cl)cc1`, the T/C was 88 % of control (dose: 50.0 mg/kg/injection, schedule: Q01DX009 (ip), vehicle: saline with Tween-80); 94 % of control (dose: 100.0 mg/kg/injection, schedule: Q01DX009 (ip), vehicle: saline with Tween-80); 95 % of control (dose: 200.0 mg/kg/injection, schedule: Q01DX009 (ip), vehicle: saline with Tween-80); 93 % of control (dose: 400.0 mg/kg/injection, schedule: Q01DX009 (ip), vehicle: saline with Tween-80).
`CCN(CC)CCNC(=O)Cc1cc(O)c2c(c1O)C(=O)c1ccccc1C2=O`: the T/C was 106 % of control (dose: 100.0 mg/kg/injection, schedule: Q04DX003 (ip), vehicle: saline with Tween-80); 106 % of control (dose: 200.0 mg/kg/injection, schedule: Q04DX003 (ip), vehicle: saline with Tween-80); 106 % of control (dose: 400.0 mg/kg/injection, schedule: Q04DX003 (ip), vehicle: saline with Tween-80).
In the case of `O=C1C(Cl)=CC(=NS(=O)(=O)c2ccccc2)C=C1Cl`, the T/C is 100 % of control (dose: 3.13 mg/kg/injection, schedule: Q01DX009 (ip), vehicle: saline with Tween-80); 105 % of control (dose: 6.25 mg/kg/injection, schedule: Q01DX009 (ip), vehicle: saline with Tween-80); 95 % of control (dose: 6.25 mg/kg/injection, schedule: Q04DX003 (ip), vehicle: saline with Tween-80); 120 % of control (dose: 12.5 mg/kg/injection, schedule: Q01DX009 (ip), vehicle: saline with Tween-80).
Take `COc1ccc(-c2c(N3CCOCC3)oc3cc(N4CCOCC4)c(O)cc23)cc1`: the T/C runs as follows: (dose: 25.0 mg/kg/injection, schedule: Q01DX005 (ip), vehicle: saline with Tween-80) 100 % of control; under setting [9], 98 % of control; under setting [10], 100 % of control; under setting [11], 91 % of control.
For `CCN(CC)CCN(C(=O)C1c2ccccc2Oc2ccccc21)C1CCCCC1`, the T/C was 101 % of control under setting [1]; 100 % of control (dose: 25.0 mg/kg/injection, schedule: Q01DX005 (ip), vehicle: Klucel (hydroxypropylcellulose) (HPC)); 98 % of control and 92 % of control under setting [2].
`Cn1cnc([N+](=O)[O-])c1Sc1ccncc1S(N)(=O)=O`: the T/C is 118 % of control under setting [2], 102 % of control under setting [3] and 108 % of control under setting [4].
For `CN1C2CCC1CC(OC(=O)CBr)C2` (stereo unspecified), the T/C reads like this: (dose: 12.5 mg/kg/injection, schedule: Q01DX009 (ip), vehicle: saline) 115 % of control; (dose: 25.0 mg/kg/injection, schedule: Q01DX009 (ip), vehicle: saline) 107 % of control; under setting [6], 117 % of control and 120 % of control.
Take `Cc1cc(Br)ccc1N1CSC(=S)N(c2ccc(Br)cc2C)C1`: the T/C runs as follows: under setting [9], 88 % of control; under setting [10], 90 % of control; under setting [11], 93 % of control.
For the compound `Cn1cnc([N+](=O)[O-])c1Sc1ccc(Cl)cc1`, the T/C (dose: 0.79 mg/kg/injection, schedule: Q01DX009 (ip), vehicle: saline with Tween-80) is 104 % of control; the T/C (dose: 1.56 mg/kg/injection, schedule: Q01DX009 (ip), vehicle: saline with Tween-80) is 104 % of control; the T/C (dose: 3.12 mg/kg/injection, schedule: Q01DX009 (ip), vehicle: saline with Tween-80) was 97 % of control.
As for `N/C(=N\S(=O)(=O)c1ccccc1)[N+](=O)[O-]`, the T/C reads like this: under setting [2], 102 % of control; under setting [3], 102 % of control; under setting [4], 98 % of control.
As for `Cc1ccn2cc(CC(=O)O)nc2n1`, the T/C was 101 % of control (dose: 100.0 mg/kg/injection, schedule: Q04DX003 (ip), vehicle: saline); 106 % of control (dose: 200.0 mg/kg/injection, schedule: Q04DX003 (ip), vehicle: saline); 105 % of control (dose: 400.0 mg/kg/injection, schedule: Q04DX003 (ip), vehicle: saline).
Consider `O/N=C1/C(=N/O)N(c2ccccc2)CCN1c1ccccc1`, for which the T/C reads like this: under setting [9], 99 % of control; under setting [10], 100 % of control; under setting [11], 92 % of control.

The values above are taken from PubChem BioAssay AID330 (DTP/NCI, 2004).
